Data published in patent publication US6297230A, “Cyanoaziridines for treating cancer” (priority 2000, dated 2001).

Tested on: Human 8226 myeloma tumors
Assay: Antitumor efficacy in SCID mice bearing human 8226 myeloma tumors (40-fold doxorubicin resistant)
Assay type: in vivo, human tumor xenograft in SCID mice
Description: Testing for Antitumor Efficacy in Mice with Severe Combined Immunodeficiency Disease (SCID)
The SCID mouse represents an autosomal recessive mutation in an inbred strain of […] mice which renders the animals profoundly immunodeficient and able to accept tissue xenografts from rats, humans or other strains of mice. (Ware, et al., J Immunol Methods 85:353-361, 1985.) The immunologic defect results from an inability to carry out normal immunoglobulin and T-cell receptor recombination reactions during the development of T- and B-lymphocytes. This renders mice with very low levels of T- and B-cells, and low levels of antibody production which allows foreign (allogeneic or xenogeneic) tissue grafts to grow in vivo. […] (Phillips, et al., Curr Top Microbiol Immunol 152:259-263, 1989.) Compared to athymic nude mice, SCID mice accept more tumor tissue types and breed more efficiently. (Phillips, et al., Curr Top Microbiol Immunol 152:259-263, 1989.) The SCID mice are also more sensitive to ionizing radiation (Budach, et al., Cancer Res 52(22):6292-6296, 1992) due to a defect in DNA double strand break repair. (Chang, et al., Cancer Res 53:1244-1248, 1993.) Because some SCID mice can spontaneously revert to a more normal phenotype, serum immunoglobulin […] (IgG) levels are routinely measured and if elevated (leaky phenotype syndrome), the mouse is excluded from further study.
The SCID mouse colony is maintained in a barrier facility with specially filtered air, autoclaved (sterilized) food and water and protective handling precautions (gloves, mask, gown) to prevent inadvertent infection. For tumor studies, human tumor cells are grown in vitro, harvested, counted and injected subcutaneously into the front flank area. Tumor cell innocula range from 10^6 -2×10^7 cells/mouse. Palpable tumors begin to develop after 1-3 weeks and sizes are determined by caliper measure of the widest perpendicular diameters. These dimensions are converted to mass using the formula:
wherein W=the shorter of the two dimensions and L=the longer diameter value.
Tumor growth rates are plotted as mass (g) per days after inoculation.
Drug treatments are given by intravenous (IV) or intraperitoneal (IP) injection beginning 24 hours after tumor implantation (day 1). […] Drug therapy began 1 day later with AMP-404 dissolved in a water-miscible co-solvent system containing (per mL): benzyl alcohol 30 mg; polysorbate 80 mw, 80 mg; polyethylene glycol 300 mw, 650 mg; and q.s. to 1.0 mL in absolute ethanol. The daily dose was either 50 mg/kg or 100 mg/kg. […]

N#CC1CN1C(=O)Nc1ccccc1 (stereo not shown) [AMP 404, 2-Cyanoaziridine-1-(N-phenyl)carboxamide]
Antitumor effect (50 mg/kg daily): not active | Mean (SD) tumor volume (50 mg/kg daily, Week 3): 104.2 (78.6) mm^3 | Mean (SD) tumor volume (50 mg/kg daily, Week 4): 247.9 (225.9) mm^3 | Mean (SD) tumor volume (50 mg/kg daily, Week 5): 574.2 (296.2) mm^3 | Mean (SD) tumor volume (50 mg/kg daily, Week 6): 1,020 (396.2) mm^3 | Mean (SD) tumor volume (50 mg/kg daily, Week 7): 1,858.4 (941.4) mm^3 | Mean reduction in tumor volume (100 mg/kg): 50% | Mean (SD) tumor volume (100 mg/kg daily, Week 3, P-value .005 vs control): 32.9 (17.9) mm^3 | Mean (SD) tumor volume (100 mg/kg daily, Week 4, P-value .068 vs control): 104.9 (81.8) mm^3 | Mean (SD) tumor volume (100 mg/kg daily, Week 5, P-value .229 vs control): 312.5 (195.5) mm^3 | Mean (SD) tumor volume (100 mg/kg daily, Week 6, P-value .100 vs control): 357.3 (314.5) mm^3 | Mean (SD) tumor volume (100 mg/kg daily, Week 7, P-value 0.19 vs control): 824.5 (793.7) mm^3 | Tumor size at end of 6 week experiment (100 mg/kg, control approximately 1,000 mm^3): approximately 300 mm^3 | Onset of developing palpable tumors (after inoculation): 3 weeks | Tumor take rate (% of inoculated mice developing palpable tumors) (all 3 groups): 100% | Antitumor activity in vivo (multidrug-resistant human myeloma, SCID mice): active against multidrug-resistant human myeloma cells in vivo
